Source: US9642362B2, “Antimicrobial compositions and uses thereof” (CASCADES CANADA ULC, priority 2012, dated 2017)
Where no end group is shown, it is not given here.

What was measured:
E. coli ATCC 11229 [1] = experiment: Agar diffusion test of pre-soaked paper towel; type: cell-based, Escherichia coli; conditions: FIG. 5
Description: The antimicrobial activity of the compositions as described herein on a cellulosic substrate could be determined by soaking the cellulosic substrate in the compositions to be tested and plating the cellulosic substrate on agar. An agar diffusion test could then be performed.
The agar well diffusion method previously described by Tagg et al. 1976 was applied as a rapid method to detect the inhibitory activity of the compounds directly (as a solution) or after immobilization on paper towel. Briefly, 25 mL of sterile TSB with 0.8% (w/v) agar was seeded with 150 μL of an overnight culture of one of the target sensitive strains and poured into a sterile Petri dish (Starstedt Inc., Montreal, Canada). The Petri dishes were kept for 20 min at room temperature under sterile conditions to allow agar solidification. Wells 7 mm in diameter were then cut in the solidified agar using the wide end of a sterile 5-mL pipette. Each well was filled with 80 μL of the compound or mixture to be tested. In the case of pre-soaked paper towel, circles 1 cm in diameter were cut and deposited directly on the solidified agar. All plates were incubated at 30° C. for 18 h and the diameter of the zone of inhibition was measured.
The aim of this experiment was to study the inhibition of bacterial growth by the antimicrobial Mix I and II in association with paper towels.

E. coli ATCC 11229 [2] = experiment: Growth curves by microplate microdilution method; type: cell-based, Escherichia coli; conditions: for Reduction of growth, taken separately compared with combined (Mix II): FIG. 1A; for Inhibition (growth curves): FIGS. 1A, 2, compounds alone at citric acid 0.25%, lactic acid 0.25%, reuterin 1.25%, or combined as Mix
Description: (§1) The inhibitory activity of the various antimicrobial compounds alone or in combination was assayed using the microtiter plate critical dilution method with two-fold serial dilutions in TSB (Turcotte et al., 2004). The 100-μL carry-over volume was drawn into the multi-channel pipette four times between each dilution. Wells were then seeded with 40 μL of target strain overnight culture diluted 1,000 fold. The plates (MIC-2000 U-Bottom Microtiter® Plates; Thermo Labsystems, Franklin, Mass., USA) were incubated at 30° C. for 18 h before reading the optical density at 650 nm using a Thermomax microplate reader (Molecular Devices, Opti-Resources, Charny, QC, Canada).
(§2) One arbitrary unit (AU) was defined as a 100-μL portion of the highest dilution of tested sample that inhibited growth in a well after 18 h of incubation (Daba et al, 1993). […] The number of AU per ml is thus […], where n=number of inhibited wells.

Listeria ivanovii HPB28 = experiment: Growth curves by microplate microdilution method; type: cell-based; conditions: for Reduction of growth, taken separately compared with combined (Mix II): FIG. 1B; for Reduction of growth, taken separately compared with combined (Mix I): FIG. 2B, lactic acid (0.125%), citric acid (0.0625%) and pediocin; for Inhibition (growth curves): FIGS. 1B, 2, compounds alone at citric acid 0.25%, lactic acid 0.25%, reuterin 1.25%, or combined as Mix
Description: as §1, §2

## CC(=O)O [acetic acid]
E. coli ATCC 11229 [1]
  Inhibition of bacterial growth, individually compared with Mix I and Mix II: do not inhibit E. Coli ATCC 11229 bacterial growth as efficiently as Mix I

## O=C(O)CC(O)(CC(=O)O)C(=O)O [citric acid]
E. coli ATCC 11229 [2]
  Reduction of growth, taken separately compared with combined (Mix II): do not reduce the growth of E. Coli ATCC 11229 or Listeria ivanovii HPB28 as efficiently
  Inhibition (growth curves): partial and non-significant inhibition
Listeria ivanovii HPB28
  Reduction of growth, taken separately compared with combined (Mix II): do not reduce the growth of E. Coli ATCC 11229 or Listeria ivanovii HPB28 as efficiently
  Reduction of growth, taken separately compared with combined (Mix I): do not reduce the growth of Listeria ivanovii HPB28 as efficiently
  Inhibition (growth curves): partial and non-significant inhibition

## CC(O)C(=O)O (centres unmarked) [lactic acid]
E. coli ATCC 11229 [1]
  Inhibition of bacterial growth, individually compared with Mix I and Mix II: do not inhibit E. Coli ATCC 11229 bacterial growth as efficiently as Mix I
E. coli ATCC 11229 [2]
  Reduction of growth, taken separately compared with combined (Mix II): do not reduce the growth of E. Coli ATCC 11229 or Listeria ivanovii HPB28 as efficiently
  Inhibition (growth curves): partial and non-significant inhibition
Listeria ivanovii HPB28
  Reduction of growth, taken separately compared with combined (Mix II): do not reduce the growth of E. Coli ATCC 11229 or Listeria ivanovii HPB28 as efficiently
  Reduction of growth, taken separately compared with combined (Mix I): do not reduce the growth of Listeria ivanovii HPB28 as efficiently
  Inhibition (growth curves): partial and non-significant inhibition

## pediocin: Fresh pediocin extract; class IIa bacteriocin produced by lactic acid bacteria (KYYGNGVTCGKHSCSVDWGKATTCIINNGAMAWATGGHQGNHKC; ends and bridges not checked; cysteine pairing not given here; UniProt P29430 19-62, looked up)
E. coli ATCC 11229 [1]
  Inhibition of bacterial growth, individually compared with Mix I and Mix II: do not inhibit E. Coli ATCC 11229 bacterial growth as efficiently as Mix I
Listeria ivanovii HPB28
  Reduction of growth, taken separately compared with combined (Mix I): do not reduce the growth of Listeria ivanovii HPB28 as efficiently
